From US20150064230A1, “SUSTAINED RELEASE DELIVERY OF ONE OR MORE AGENTS” (Mati Therapeutics Inc., priority 2009, published 2015)
Each block holds one compound with its values, some of them ahead of it.

Key:
[1] = Elution of latanoprost from silicone drug cores with excipients in PBS (FIGS. 9-12); format: physicochemical; conditions: 37° C., 100 cpm, 10% glycerol, 5% PEG400, 7.3 wt % DMPC or EPG in Formulations 1 and 2
Method: The silicone formulation (MED6385) is a two part system. Part A contains the silicone and crosslinker while Part B contains the tin catalyst to promote crosslinking. The two parts are combined in a final ratio of 200:1 (Part A: Part B). The required amounts of Latanoprost, the selected excipient (DMPC or EPG), the crosslinker, MED6385 Part A and B are weighed onto a glass slide and mixed for approximately 2 minutes using a plastic mini spatula. Quantities used in the preparation of specific examples are shown below.
After the silicone/latanoprost mixing is complete, the mixture is loaded in the barrel of the syringe extrusion system. The plunger is inserted and excess air is removed. The syringe is then loaded into the extrusion apparatus.
After setup, the extrusion system activated and a silicone latanoprost mixture is extruded down the length of the polyimide tubing. Once the mixture reaches the bottom of the tubing, the tubing is cut using a razor blade and clamped on both ends.
The clamped section of tubing is placed in a humidity chamber to be cured.
Samples, including those shown in FIGS. 9-12, were analyzed for elution by immersion in a PBS (phosphate buffered saline) elution medium. Temperature was maintained at 37° C. with 100 cpm shaking. The elution medium was changed daily (except weekends) for the first two weeks and weekly thereafter. Elution media samples were analyzed by reversed-phase chromatography. Samples were prepared for HPLC analysis by adding 200 μL of internal standard solution (2.4 μg/mL of butylated hydroxyanisole in isopropanol) and vortexing to mix. The amount of latanoprost eluted was determined using a reversed phase HPLC UV detection using a Waters SunFire C18, 3.5 μm, 3.0×100 mm column and detection conditions of the following: 1.0 mL/min flow rate, 200 μL injection volume, 210 nm detection wavelength, using gradient of solvents over a run time of 6 minutes (time zero=63% mobile phase A, 37% mobile phase B, time 4.9 minutes=35% A, 65% B, time 5 minutes=63% A, 37% B) comprising 0.1% Phosphoric Acid in Water (mobile Phase A) and ACN (mobile phase B), 50° C. column temperature set point.

subjects = conditions: clinical trials, cited from earlier work
[2] = cited from earlier work
[3] = after topical administration; studies in man; cited from earlier work

Compound: CCCCCCCCCCCCCC(=O)OC[C@H](COP(=O)([O-])OCC[N+](C)(C)C)OC(=O)CCCCCCCCCCCCC [DMPC, dimyristoyl phosphatidylcholine]
release (elution) rate of latanoprost from silicone matrix with excipient relative to no excipient [1]: increased elution rate

Compound: CCCCCCCCCCCCCC(=O)OCC(COP(=O)(O)OCC(O)CO)OC(=O)CCCCCCCCCCCCC (stereo not drawn) [DMPG, dimyristoyl phosphatidylglycerol]
release (elution) rate of latanoprost from silicone matrix with excipient relative to no excipient [1]: increased elution rate

Compound: CCCCCCCCCCCCCCCC(=O)OC[C@H](COP(=O)([O-])OCC[N+](C)(C)C)OC(=O)CCCCCCCCCCCCCCC [DPPC, dipalmitoyl phosphatidylcholine]
release (elution) rate of latanoprost from silicone matrix with excipient relative to no excipient [1]: decreased elution rate

Compound: CCCCCCCCCCCCCCCC(=O)OCC(COP(=O)(O)OCCN)OC(=O)CCCCCCCCCCCCCCC (stereo not drawn) [DPPE, dipalmitoyl phosphatidylethanolamine]
release (elution) rate of latanoprost from silicone matrix with excipient relative to no excipient [1]: decreased elution rate

Compound: CCCCCCCCCCCCCCCCCC(=O)OC[C@H](COP(=O)([O-])OCC[N+](C)(C)C)OC(=O)CCCCCCCCCCCCCCCCC [DSPC, distearoyl phosphatidylcholine]
release (elution) rate of latanoprost from silicone matrix with excipient relative to no excipient [1]: decreased elution rate

Compound: CC(C)OC(=O)CCC/C=C\C[C@@H]1[C@@H](CC[C@@H](O)CCc2ccccc2)[C@H](O)C[C@@H]1O [latanoprost, isopropyl-(Z)-7[(1R,2R,3R,5S)3,5-dihydroxy-2-[(3R)-3-hydroxy-5-phenylpentyl]cyclopentyl]-5-heptenoate]
conjunctivitis, diplopia, discharge from the eye, subjects (subjects; Xalatan product information): Less than 1%
retinal artery embolus, retinal detachment, vitreous hemorrhage from diabetic retinopathy (subjects; Xalatan product information): rarely reported
subjects requiring discontinuation of therapy because of intolerance to conjunctival hyperemia (subjects; Xalatan product information): Less than 1%
systemic adverse events: upper respiratory tract infection/cold/flu, rate (subjects): approximately 4%
solubility in acetone, ethanol, ethyl acetate, isopropanol, methanol and octanol [2]: freely soluble
solubility in acetonitrile [2]: very soluble
solubility in water [2]: practically insoluble in water
aqueous solubility ([2]; in water at 25 degrees C.): 50 micrograms/mL
aqueous solubility, by weight ([2]; in water at 25 degrees C.): about 0.005 % by weight
time to peak concentration in the aqueous humor [3]: about two

The remaining lines, values ahead:

release (elution) rate of latanoprost from silicone matrix with excipient relative to no excipient [1]: increased elution rate
Compound: CCCCCCCC/C=C\CCCCCCCC(=O)O[C@H](COC(=O)CCCCCCCCCCCCCCC)COP(=O)(O)OCC(O)CO (stereo partly drawn) [POPG, palmitoyl oleoyl phosphatidylglycerol]

release (elution) rate of latanoprost from silicone matrix with excipient relative to no excipient [1]: decreased elution rate
Compound: CCCCCCCCCCCCCCCCCC(=O)O[C@H](COC(=O)CCCCCCCCCCCCCCC)COP(=O)([O-])OCC[N+](C)(C)C [PSPC, palmitoyl stearoyl phosphatidylcholine]

release (elution) rate of latanoprost from silicone matrix with excipient relative to no excipient [1]: rate is increased relative to control
Compound: OCC(O)CO [glycerol]
